Measurements as given in patent US5789589A, “Guanine analog phosphates” (Drug Innovation & Design, Inc., priority 1996, dated 1998).

Key:
[1] = test system: TK^+ HSV 1; test: In vitro antiviral activity (CPE) against TK^+ HSV-1 (BWVL#10186) in Vero cells; type: cell-based, Herpes type 1 virus (HSV-1), human clinical isolate; details: for EC50: Human alphaherpesvirus 1, TK^+ HSV 1, Vero cells, CPE, about 72 hours, read-out: ED50 (the source's name); for Activity compared with acyclovir (in words): in vitro, TK^+ HSV-1
Description: (§1) The following test were carried out essentially as described by Sidwell and Huffman (Sidwell, et al., App. Microbiol., 22:797-801 (1971)), and was used in the reports on the in vitro antiviral activity of ribavirin (Sidwell, et al. Science, 177:705-706 (1972); Huffman, et al., Antimicrob. Ag. Chemother., 3:235-241 (1973)).
(§2) Herpes type 1 virus (HSV-1), BWVL#10186, is a thymidine kinase positive (TK^+) human clinical isolate provided by Dr. M. Nixon Ellis, Burroughs Wellcome Co. (Research Triangle Park, N.C.). The BWVL#10168 strain of HSV-1 is a TK- patient isolate (resistant partner to 10186) that was also provided by Dr. Ellis. Both strains were prepared in Vero cells, ampuled, and frozen at -80° C. Antiviral testing was performed in Vero cells.
(§3) Vero (continuously passaged African green monkey kidney) was obtained from the American Type Culture Collection (ATCC) (Rockville, Md.). Growth medium was Medium 199, 5% FBS and 0.1% NaHCO3. Test medium was Eagle's minimum essential medium with non-essential amino acids (MEM), with 2% FBS, 0.18% NaHCO3 and 50 μg gentamicin/ml. The growth medium contained no antibiotics.
(§4) Compounds were weighed and a sufficient amount added to DMSO (American Type Culture Collection, Rockville, Md.) to prepare a solution at 20 mg/ml.
(§5) Cells were seeded to 96-well flat-bottomed tissue culture plates (Corning Glass Works, Corning, N.Y.), 0.2 ml/well, at the proper cell concentration, and incubated overnight at 37° C. in order to establish cell monolayers. The growth medium was decanted and the various dilutions of test compound were added to each well (4 wells/dilution, 0.1 ml/well). Compound diluent medium was added to cell and virus control wells (0.1 ml/well). Virus, diluted in test medium, was added to compound test wells (3 wells/dilution of compound) and to virus control wells at 0.1 ml/well. Virus was added approximately 5 minutes after compound. Test medium without virus was added to all toxicity control wells (1 well/dilution of each test compound) and to cell control wells at 0.1 ml/well. The plates were sealed with plastic wrap (SARAN™) and incubated at 37° C. in a humidified incubator with 5% CO2, 95% air atmosphere until virus control had adequate cytopathic effect (CPE) readings. This was usually achieved after 72 hours. Cells were then examined microscopically for CPE, this being scored from 0 (normal cells) to 4 (maximal, 100%, CPE). The cells in the toxicity control wells were observed microscopically for morphologic changes attributed to cytotoxicity. This cytotoxicity was graded as: T (assigned 100% toxicity), PVH (assigned 80% cytotoxicity), PH (assigned 60% cytotoxicity), P (assigned 40% cytotoxicity), PSI (assigned 20% cytotoxicity), and 0 (normal cells). The 50% effective dose (ED50) and 50% cytotoxic dose (CD50) were calculated by regression analysis of the virus CPE data and the toxicity control data, respectively.
(§6) A known active substance, acyclovir, was run in the same manner as above for each batch of compounds tested.

[2] = test system: TK^- HSV 1; test: In vitro antiviral activity (CPE) against TK^- acyclovir resistant HSV-1 (BWVL#10168) in Vero cells; type: cell-based, Herpes type 1 virus (HSV-1), patient isolate; details: for EC50: Human alphaherpesvirus 1, Vero, 72 h, read-out: ED50; for Activity relative to acyclovir (fold more active): in vitro, acyclovir resistant (TK^-) HSV-1
Description: as §1, §2, §3, §4, §5, §6

[3] = in vitro; type: cell-based; details: african green monkey, vero cells
Description: as §3, §4, §5

[4] = test system: HSV-1; test: Dermal HSV-1 infection in guinea pigs, topical treatment; type: in vivo, Female Hartley outbred guinea pigs; details: for Comparison with U.S. ZOVIRAX in all three efficacy parameters: Mann-Whitney test, p=0.0008, 0.0008, 0.001; for Reduction in lesion number (in words): guinea pigs with dermal HSV-1 lesions, compared to vehicle; for Lesion Number, % Diff vs placebo / Lesion virus titer, % Diff vs placebo / Total Lesion Area, % Diff vs placebo: positive value = reduction vs vehicle, p=0.012; for Lesion virus titer, mean: skin taken Day 4, plaque formation in VERO cells; for Lesion Number, mean: prodrug cream (1.2% Prodrug 1 or 1.87% Prodrug 2) 2x/day on Days 1, 2 and 3
Description: The formulation for Prodrugs 1 and 2 contained 5% EL-620 EMULPHOR (polyoxyethylated castor oil) (Rhone Poluenc), 5% CARBOPOL (Carboxypolymethylene, sodium salt) (B.F. Goodrich), 10% ethanol and 1.2% by weight Prodrug 1 (or 1.87% by weight Prodrug 2). The balance of the formulation consisted of water.
EL-620 EMULPHOR and water were mixed and ultrasonicated to give a clear emulsion, to which the ethanol was added. The prodrug was then added, and the mixture was ultrasonicated to give an opalescent emulsion. The sodium carbopol was then added to the emulsion and mixed until to homogeneity.
The placebo was prepared identically to the pharmaceutical compositions except that the prodrugs were omitted.
Female Hartley outbred guinea pigs, 400 to 450 grams, were obtained from Charles River Breeding Labs, Wilmington, Mass. Animals were anesthetized with 25 mg/kg ketamine and 5 mg/kg xylazine SQ. Hair on the dorsum from the shoulders to the rump was removed with electric clippers followed by two 5-10 minute applications of a chemical depilatory. A grid of four areas was demarcated with a pen on both sides of the spine at levels corresponding to mid back and rump.
Undiluted HSV-1 virus stock (0.035 ml) was applied to each different area and introduced through the skin at well-spaced sites at ten activations of a six-pronged spring-loaded vaccination instrument (Sterneedle, Pan Ray Division, Ormont Drug, Englewood, N.J.). The day of inoculation is Day 0. Approximately 250 mg of drug or placebo was applied to the areas according to the dosing regimen on Days 1, 2 and 3. Eight guinea pigs were used during the experiments allowing eight comparisons between each drug and its placebo. 5% ZOVIRAX ointment U.S.A. (Acyclovir) applied 4×/day was used as a control.
On Day 4 regrown hair on the dorsum of the guinea pigs was removed with one 3-4 minute application of a chemical depilatory. HSV lesions were counted and Polaroid pictures of the animals' backs were taken. The animals were sacrificed using CO2 gas and the full thickness skin of the back was removed by dissection. The square of the skin from each of the four treatment areas was placed into 15 mls of tissue culture medium with 2% FBS in an ice bath. The samples were then homogenized in a stomacher Lab Blender 80 (Tekmar Co.). Debris was pelleted by centrifugation and the supernatants collected and frozen at -70 C. until assay for infectivity by plaque formation in VERO cells.
The mean and standard deviation for number of lesions, total lesion area and lesion virus titer were computed for each treatment pair. Paired data (drug/vehicle) were evaluated by the Wilcoxon signed-rank test using percent differences between log10 derivatives of mean lesions severity at drug-treated sites compared to the vehicle-treated sites.

[5] = test system: Herpes Simplex Virus-1; test: Healing of vaginal lesions in mice caused by Herpes Simplex Virus-1; type: in vivo; details: topical application
[6] = test system: pig liver esterase; test: Incubation with pig liver esterase in phosphate buffered D2O, NMR; type: in vitro ADME
[7] = test system: herpes simplex labialis; details: cited from earlier work
[8] = prodrug cream 2x/day on Days 1, 2 and 3, assessed Day 4, n=8
[9] = prodrug cream 2x/day on Days 1, 2 and 3, n=8
[10] = prodrug cream 2x/day on Days 1, 2 and 3

| SMILES | EC50 [1] [µM] | Activity compared with acyclovir (in words) [1] | EC50 [2] [µM] | CC50 [3] [µg/mL] | Comparison with U.S. ZOVIRAX in all three efficacy parameters [4] | Reduction in lesion number (in words) [4] | Lesion Number, median [4, 8] | Total Lesion Area, median [4, 8] [mm2] | Lesion virus titer, median [4, 9] | Lesion Number, % Diff vs placebo [4, 10] [%] | Lesion virus titer, % Diff vs placebo [4, 10] [%] | Total Lesion Area, % Diff vs placebo [4, 10] [%] | Lesion virus titer, mean [4, 9] | Lesion Number, mean ([4]; assessed Day 4, n=8) | Activity relative to acyclovir (fold more active) [2] | Healing of vaginal lesions [5] | Total Lesion Area, mean [4, 8] [mm2] | Degradation by pig liver esterase [6] | Effectiveness of oral administration in treatment of cold sores ([7]; oral) | Response of cold sores to topical treatment ([7]; topical) |
| --- | --- | --- | --- | --- | --- | --- | --- | --- | --- | --- | --- | --- | --- | --- | --- | --- | --- | --- | --- | --- |
| COC(=O)CC(O[PH](=O)OCCOCn1cnc2c(=O)[nH]c(N)nc21)c1ccc(OC(=O)C(C)(C)C)cc1 (stereo not drawn) [Prodrug 3] | 5.5 | same order of magnitude as acyclovir | 37 | > 100 |  |  |  |  |  |  |  |  |  |  |  |  |  |  |  |  |
| COC(=O)CC(OP(=O)(OCCOCn1cnc2c(=O)[nH]c(N)nc21)OC(CC(=O)OC)c1ccc(OC(=O)C(C)(C)C)cc1)c1ccc(OC(=O)C(C)(C)C)cc1 (stereo not drawn) [Prodrug 2] | 6.3 | same order of magnitude as acyclovir | 7.5 | > 100 | worked significantly better than U.S. ZOVIRAX in all three of the efficacy parameters measured | dramatic reduction in lesion number | 36.0 | 109 | 3.12 log (pfu/ml) | 35 | 97 | 57 | 2.87 log (pfu/ml) | 37 | about 5 × | effective in promoting the healing of vaginal lesions in mice |  |  |  |  |
| COC(=O)CC(OP(=O)(OCCOCn1cnc2c(=O)[nH]c(N)nc21)OC(CC(=O)OC)c1ccc(OC(C)=O)cc1)c1ccc(OC(C)=O)cc1 (stereo not drawn) [Prodrug 1] | 4.6 | same order of magnitude as acyclovir | 17 | > 100 | worked significantly better than U.S. ZOVIRAX in all three of the efficacy parameters measured | dramatic reduction in lesion number | 32.0 | 107 | 3.17 log (pfu/ml) | 45 | 96 | 59 | 3.07 log (pfu/ml) | 32 | about 2 × |  | 106 | degraded to acyclovir monophosphate and p-hydroxycinnamic |  |  |
| Nc1nc2c(ncn2COCCO)c(=O)[nH]1 [Acyclovir, acyclovir, reference compound] | 1.4 |  | 35 | > 100 |  |  |  |  |  |  |  |  |  |  |  |  |  |  | only partially effective | do not respond to the topical treatment |
